Molecules are shown by their SMILES.

The data set in a line: SP value (solubility parameter) calculated by formula 1. To be noted: 25°C (298 K), formula {(ΔH - RT)/(M/D)}^1/2.
With `OCC(O)CO` [Glycerin, glycerin], the SP value was 14.9 (cal/cm^3)^1/2.

In the case of `CC(O)COC(C)COC(C)CO` (stereo not drawn) [Tripropylene glycol], the SP value was 11.3 (cal/cm^3)^1/2.

In the case of `CC(O)CO` (stereo not drawn) [Propylene glycol, 1,2-propanediol], the SP value is on record as 12.6 (cal/cm^3)^1/2.

These data come from EP4700095A1, “INK COMPOSITION FOR INK-JET PRINTING” (Sakata INX Corporation, priority 2023, dated 2024).
